Test results published in PubChem BioAssay AID248 (DTP/NCI, 2004).
Values joined by “and” are separate entries in the source; they are usually repeats but may differ in a detail not shown here. Equal entries are not always repeated. Inconclusive results and toxic doses are left out. Rule as the data show it: active = T/C of 150% or more; inactive = T/C below 125%.

System: L1210 leukemia ip in BDF1 mice, survival T/C
Assay: NCI In Vivo Anticancer Drug Screen. Data for tumor model L1210 Leukemia (intraperitoneal) in B6D2F1 (BDF1) mice
Settings: endpoint: mean survival time, higher = longer survival
Procedure, shortened: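 Survival endpoint. Drug-treated group vs vehicle group, expressed as T divided by C. Tumor passaged by transplantation.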

[1] = dose: 20.0 mg/kg/injection, schedule: Q01DX009 (ip), vehicle: saline
[2] = dose: 40.0 mg/kg/injection, schedule: Q01DX009 (ip), vehicle: saline
[3] = dose: 100.0 mg/kg/injection, schedule: Q01DX001 (ip), vehicle: saline
[4] = dose: 200.0 mg/kg/injection, schedule: Q01DX001 (ip), vehicle: saline
[5] = dose: 400.0 mg/kg/injection, schedule: Q01DX001 (ip), vehicle: saline
[6] = dose: 100.0 mg/kg/injection, schedule: Q01DX001 (ip), vehicle: other
[7] = dose: 200.0 mg/kg/injection, schedule: Q01DX001 (ip), vehicle: other
[8] = dose: 400.0 mg/kg/injection, schedule: Q01DX001 (ip), vehicle: other
[9] = dose: 12.5 mg/kg/injection, schedule: Q01DX009 (ip), vehicle: saline with Tween-80
[10] = dose: 12.5 mg/kg/injection, schedule: Q04DX003 (ip), vehicle: saline with Tween-80
[11] = dose: 25.0 mg/kg/injection, schedule: Q01DX009 (ip), vehicle: saline with Tween-80
[12] = dose: 25.0 mg/kg/injection, schedule: Q04DX003 (ip), vehicle: saline with Tween-80
[13] = dose: 50.0 mg/kg/injection, schedule: Q01DX009 (ip), vehicle: saline with Tween-80
[14] = dose: 50.0 mg/kg/injection, schedule: Q04DX003 (ip), vehicle: saline with Tween-80
[15] = dose: 100.0 mg/kg/injection, schedule: Q01DX009 (ip), vehicle: saline with Tween-80
[16] = dose: 200.0 mg/kg/injection, schedule: Q01DX009 (ip), vehicle: saline with Tween-80
[17] = dose: 400.0 mg/kg/injection, schedule: Q01DX009 (ip), vehicle: saline with Tween-80
[18] = dose: 200.0 mg/kg/injection, schedule: Q04DX003 (ip), vehicle: saline with Tween-80
[19] = dose: 400.0 mg/kg/injection, schedule: Q04DX003 (ip), vehicle: saline with Tween-80
[20] = dose: 100.0 mg/kg/injection, schedule: Q01DX001 (ip), vehicle: carboxymethylcellulose (CMC)
[21] = dose: 200.0 mg/kg/injection, schedule: Q01DX001 (ip), vehicle: carboxymethylcellulose (CMC)
[22] = dose: 400.0 mg/kg/injection, schedule: Q01DX001 (ip), vehicle: carboxymethylcellulose (CMC)
[23] = dose: 100.0 mg/kg/injection, schedule: Q04DX003 (ip), vehicle: saline with Tween-80

Measured: T/C

CC(=O)OCCN1CCN(CC/C=C2\c3ccccc3Sc3ccc(Cl)cc32)CC1
inactive: dose: 2.0 mg/kg/injection, schedule: Q01DX009 (ip), vehicle: saline 100 % of control | dose: 5.0 mg/kg/injection, schedule: Q01DX009 (ip), vehicle: saline 98 % of control and 115 % of control | dose: 10.0 mg/kg/injection, schedule: Q01DX009 (ip), vehicle: saline 102 % of control | [1] 111 % of control | dose: 25.0 mg/kg/injection, schedule: Q04DX003 (ip), vehicle: saline 120 % of control | [2] 117 % of control | [3] 108 % of control | [4] 114 % of control

CC(C)(O)C(O)c1ccccc1 (configuration not stated)
inactive: [3] 103 % of control | dose: 100.0 mg/kg/injection, schedule: Q01DX009 (ip), vehicle: saline 98 % of control | dose: 100.0 mg/kg/injection, schedule: Q04DX003 (ip), vehicle: saline 97 % of control | [4] 101 % of control | dose: 200.0 mg/kg/injection, schedule: Q01DX009 (ip), vehicle: saline 93 % of control | dose: 200.0 mg/kg/injection, schedule: Q04DX003 (ip), vehicle: saline 97 % of control | [5] 95 % of control | dose: 400.0 mg/kg/injection, schedule: Q04DX003 (ip), vehicle: saline 100 % of control

O=C(Nc1ccc([N+](=O)[O-])cc1)OCC(COc1ccccc1)OC(=O)Nc1ccc([N+](=O)[O-])cc1 (configuration not stated)
inactive: [6] 100 % of control | [7] 89 % of control | [8] 100 % of control

Cc1ccc(S(=O)(=O)N2CC(=O)CCc3ccc(Cl)cc32)cc1
inactive: dose: 75.0 mg/kg/injection, schedule: Q01DX009 (ip), vehicle: other 100 % of control | dose: 150.0 mg/kg/injection, schedule: Q01DX009 (ip), vehicle: other 100 % of control | dose: 300.0 mg/kg/injection, schedule: Q01DX009 (ip), vehicle: other 100 % of control

CCCCOP(=O)(CCCC)OCCCC
inactive: [9] 103 % of control | [10] 86 % of control | [11] 92 % of control | [12] 104 % of control | [13] 92 % of control | [14] 93 % of control and 94 % of control

CC(=O)c1ccc(-c2ccccc2)cc1
inactive: [15] 91 % of control | [16] 93 % of control | [17] 96 % of control

C(=N\N=C\c1c[nH]c2ccccc12)/c1c[nH]c2ccccc12
inactive: dose: 100.0 mg/kg/injection, schedule: Q01DX009 (ip), vehicle: gum acacia 87 % of control | dose: 100.0 mg/kg/injection, schedule: Q04DX003 (ip), vehicle: gum acacia 92 % of control | dose: 200.0 mg/kg/injection, schedule: Q01DX009 (ip), vehicle: gum acacia 87 % of control | dose: 200.0 mg/kg/injection, schedule: Q04DX003 (ip), vehicle: gum acacia 89 % of control | dose: 400.0 mg/kg/injection, schedule: Q01DX009 (ip), vehicle: gum acacia 86 % of control | dose: 400.0 mg/kg/injection, schedule: Q04DX003 (ip), vehicle: gum acacia 89 % of control

CCc1ccccc1NC(=S)NC1CCCCC1
inactive: dose: 100.0 mg/kg/injection, schedule: Q01DX009 (ip), vehicle: Klucel (hydroxypropylcellulose) (HPC) 92 % of control | dose: 200.0 mg/kg/injection, schedule: Q01DX009 (ip), vehicle: Klucel (hydroxypropylcellulose) (HPC) 101 % of control

O=C(Nc1ccc(Cl)cc1)Nc1ccccc1F
inactive: [18] 91 % of control | [19] 89 % of control

Cc1ncc(CC(=O)O)c2c1OC(C)(C)OC2
inactive: [20] 101 % of control | [21] 106 % of control | [22] 98 % of control

CCCCCCCCCCCCCCCC(=O)NCC(C)NC(=O)CCCCCCCCCCCCCCC (configuration not stated)
inactive: dose: 75.0 mg/kg/injection, schedule: Q01DX001 (ip), vehicle: saline 95 % of control | dose: 150.0 mg/kg/injection, schedule: Q01DX001 (ip), vehicle: saline 96 % of control | dose: 300.0 mg/kg/injection, schedule: Q01DX001 (ip), vehicle: saline 103 % of control

O=C(Nc1ccc(F)c(Cl)c1)Oc1ccc(OCc2ccccc2)cc1
inactive: dose: 100.0 mg/kg/injection, schedule: Q04DX003 (ip), vehicle: Klucel (hydroxypropylcellulose) (HPC) 94 % of control | dose: 200.0 mg/kg/injection, schedule: Q04DX003 (ip), vehicle: Klucel (hydroxypropylcellulose) (HPC) 94 % of control | dose: 400.0 mg/kg/injection, schedule: Q04DX003 (ip), vehicle: Klucel (hydroxypropylcellulose) (HPC) 95 % of control

CN(CCO)/N=N/c1nc[nH]c1C#N
inactive: [6] 98 % of control | [15] 103 % of control | [23] 102 % of control | [7] 100 % of control | [16] 103 % of control | [18] 107 % of control | [8] 94 % of control | [17] 113 % of control | [19] 102 % of control

CCOP(=O)(OCC)Oc1ccc(SC)cc1
inactive: dose: 5.0 mg/kg/injection, schedule: Q01DX001 (ip), vehicle: saline 96 % of control | dose: 10.0 mg/kg/injection, schedule: Q01DX001 (ip), vehicle: saline 98 % of control

CCC(=O)c1ccc(NC(=O)Nc2ccc(C(=O)CC)cc2)cc1
inactive: [1] 96 % of control | [2] 93 % of control | dose: 80.0 mg/kg/injection, schedule: Q01DX009 (ip), vehicle: saline 102 % of control | dose: 160.0 mg/kg/injection, schedule: Q01DX009 (ip), vehicle: saline 95 % of control | dose: 320.0 mg/kg/injection, schedule: Q01DX009 (ip), vehicle: saline 92 % of control

COP(=O)(OC)C(OC(=O)C(C)(C)SC(C)=S)=C(C)C
inactive: [23] 103 % of control | [18] 96 % of control | [19] 94 % of control

O=C(Cn1ccc(O)cc1=O)c1ccc(Cl)s1
inactive: [15] 111 % of control | [23] 98 % of control | [16] 90 % of control | [18] 93 % of control | [17] 91 % of control | [19] 98 % of control

O=C(C(Br)c1ccccc1)C(Br)c1ccccc1 (configuration not stated)
inactive: dose: 6.25 mg/kg/injection, schedule: Q01DX009 (ip), vehicle: saline with Tween-80 104 % of control | [9] 98 % of control and 107 % of control | [10] 96 % of control | [11] 100 % of control and 110 % of control | [12] 90 % of control | [13] 102 % of control | [14] 101 % of control

CC/C(C)=N\O
inactive: dose: 50.0 mg/kg/injection, schedule: Q01DX001 (ip), vehicle: saline 112 % of control | [3] 101 % of control | [4] 93 % of control | [5] 95 % of control

COc1cc(Oc2cc(OC)c(OC)c(OC)c2)cc(OC)c1OC
inactive: [23] 97 % of control | [18] 101 % of control | [19] 97 % of control

Cc1c(C)c(CO)c(C)c(C)c1CO
inactive: dose: 12.5 mg/kg/injection, schedule: Q04DX003 (ip), vehicle: Klucel (hydroxypropylcellulose) (HPC) 94 % of control | dose: 25.0 mg/kg/injection, schedule: Q04DX003 (ip), vehicle: Klucel (hydroxypropylcellulose) (HPC) 92 % of control | dose: 50.0 mg/kg/injection, schedule: Q04DX003 (ip), vehicle: Klucel (hydroxypropylcellulose) (HPC) 97 % of control

OCCCc1cc(Br)ccc1O
inactive: dose: 50.0 mg/kg/injection, schedule: Q01DX001 (ip), vehicle: carboxymethylcellulose (CMC) 105 % of control | [20] 100 % of control | [21] 100 % of control | [22] 92 % of control

COc1ccccc1/C1=C/CCCCCC1
inactive: dose: 50.0 mg/kg/injection, schedule: Q01DX009 (ip), vehicle: acetone 90 % of control | dose: 100.0 mg/kg/injection, schedule: Q01DX009 (ip), vehicle: acetone 88 % of control | dose: 100.0 mg/kg/injection, schedule: Q04DX003 (ip), vehicle: acetone 100 % of control | dose: 200.0 mg/kg/injection, schedule: Q01DX009 (ip), vehicle: acetone 87 % of control | dose: 200.0 mg/kg/injection, schedule: Q04DX003 (ip), vehicle: acetone 92 % of control | dose: 400.0 mg/kg/injection, schedule: Q04DX003 (ip), vehicle: acetone 89 % of control
